Data as given in patent US10206394B2, “Herbicidal compounds” (Syngenta Participations AG, priority 2014, dated 2019).
Where two headings read alike, the source gives them in different places.

What was measured:
Test in all cases: Glasshouse assay for herbicidal activity (pre- and post-emergence), percentage phytotoxicity
Format in all cases: in vivo
[1] = system: Alopecurus myosuroides (ALOMY); conditions: Alopecurus myosuroides, Rate 250 g/ha, 100%=total damage, 0%=no damage
Protocol: (§1) Test—Glasshouse Assay for Herbicidal Activity
(§2) Seeds of a variety of monocotyledonous and dicotyledonous test plants are sown in standard soil in pots. The plants are cultivated for one day (for pre-emergence (PRE)) or for about 12 days (for post-emergence (POST)) under controlled conditions in a glasshouse (warm climate species at 24/18° C., cool climate species at 20/16° C., both at day/night; 16 hours light; 65% humidity).
(§3) The test plants are then grown on, in a glasshouse (greenhouse) under controlled conditions (warm climate species at 24/18° C., cool climate species at 20/16° C., both at day/night; 16 hours light; 65% humidity) and are watered twice daily. 15 days after application of the test herbicide (15 DAA) (for post-emergence), and 20 days after application of the test herbicide (20 DAA) (for pre-emergence), the test plants are evaluated visually, and an assessed percentage phytotoxicity score is given for each herbicidal application on each plant species (with 100%=total damage to plant; 0%=no damage to plant).
(§4) The plant species tested are as follows: Alopecurus myosuroides (ALOMY), Avena fatua (AVEFA), Lolium perenne (LOLPE), Echinochloa crus-galli (ECHCG).

Lolium perenne (LOLPE) = conditions: Lolium perenne, Rate 250 g/ha, 100%=total damage, 0%=no damage
Protocol: as §1, §2, §3, §4

Avena fatua (AVEFA) = conditions: Avena fatua, Rate 250 g/ha, 100%=total damage, 0%=no damage
Protocol: as §1, §2, §3, §4

[2] = system: Echinochloa crus-galli (ECHCG); conditions: Echinochloa crus-galli, Rate 250 g/ha, 100%=total damage, 0%=no damage
Protocol: as §1, §2, §3, §4

[3] = post-emergence, 360 h, post-emergence, assessed visually 15 DAA, read-out: Post-emergence herbicidal activity (percentage phytotoxicity) ALOMY POST
[4] = pre-emergence, 480 h, pre-emergence, assessed visually 20 DAA, read-out: Pre-emergence herbicidal activity (percentage phytotoxicity) ALOMY PRE
[5] = post-emergence, 360 h, post-emergence, assessed visually 15 DAA, read-out: Post-emergence herbicidal activity (percentage phytotoxicity) LOLPE POST
[6] = pre-emergence, 480 h, pre-emergence, assessed visually 20 DAA, read-out: Pre-emergence herbicidal activity (percentage phytotoxicity) LOLPE PRE
[7] = post-emergence, 360 h, post-emergence, assessed visually 15 DAA, read-out: Post-emergence herbicidal activity (percentage phytotoxicity) AVEFA POST
[8] = pre-emergence, 480 h, pre-emergence, assessed visually 20 DAA, read-out: Pre-emergence herbicidal activity (percentage phytotoxicity) AVEFA PRE
[9] = post-emergence, 360 h, post-emergence, assessed visually 15 DAA, read-out: Post-emergence herbicidal activity (percentage phytotoxicity) ECHCG POST
[10] = pre-emergence, 480 h, pre-emergence, assessed visually 20 DAA, read-out: Pre-emergence herbicidal activity (percentage phytotoxicity) ECHCG PRE

SMILES	pest or weed control at 250 g/ha [1, 3]	pest or weed control at 250 g/ha [1, 4]	pest or weed control at 250 g/ha (Lolium perenne (LOLPE); [5])	pest or weed control at 250 g/ha (Lolium perenne (LOLPE); [6])	pest or weed control at 250 g/ha (Avena fatua (AVEFA); [7])	pest or weed control at 250 g/ha (Avena fatua (AVEFA); [8])	pest or weed control at 250 g/ha [2, 9]	pest or weed control at 250 g/ha [2, 10]
C#CCNC(=O)CC1CC(=O)C(c2c(C)cc(C#CC)cc2CC)C1=O (centres unmarked) [Compound A68]	90%	70%	100%	100%	100%	100%	100%	100%
C#CCNC(=O)CC1CC(=O)C(c2c(C)cc(-c3ncc(Cl)cc3F)cc2C)C1=O (centres unmarked) [Compound A69]	100%	100%	100%	100%	100%	100%	100%	100%
Cc1cc(-n2cc(Cl)cn2)cc(C)c1C1C(=O)CC(CC(=O)NCc2ccccn2)C1=O (centres unmarked) [Compound A71]	100%	80%	70%	60%	90%	80%	100%	90%
Cc1cc(-n2cc(Cl)cn2)cc(C)c1C1C(=O)CC(CC(=O)NCC(C)C)C1=O (centres unmarked) [Compound A72]	90%	90%	80%	90%	90%	90%	90%	100%
Cc1cc(-n2cc(Cl)cn2)cc(C)c1C1C(=O)CC(CC(=O)NC(C)C)C1=O (centres unmarked) [Compound A74]	100%	100%	90%	90%	100%	90%	100%	100%
Cc1cc(-n2cc(Cl)cn2)cc(C)c1C1C(=O)CC(CC(=O)NC2CC2)C1=O (centres unmarked) [Compound A75]	100%	100%	90%	90%	100%	90%	100%	100%
C=CCCNC(=O)CC1CC(=O)C(c2c(C)cc(-n3cc(Cl)cn3)cc2C)C1=O (centres unmarked) [Compound A76]	100%	90%	80%	90%	90%	90%	100%	100%
COCCNC(=O)CC1CC(=O)C(c2c(C)cc(-n3cc(Cl)cn3)cc2C)C1=O (centres unmarked) [Compound A77]	90%	80%	80%	80%	90%	80%	100%	100%
CC#Cc1cc(C)c(C2C(=O)CC(CC(=O)NCC#N)C2=O)c(C)c1 (centres unmarked) [Compound A78]	80%	10%	30%	20%	40%	30%	100%	60%
CC#Cc1cc(C)c(C2C(=O)CC(CC(=O)N(C)CCC)C2=O)c(CC)c1 (centres unmarked) [Compound A79]	100%	100%	100%	100%	100%	100%	100%	100%
